No end group written: not given here.
Experiments:
[1] = Example 4 stability of concentrated solutions: Osmolality (method 69153); assay type: physicochemical
Protocol: (§1) The peptide formulation of SEQ ID NO: 1 dissolved in a saline solution with a pH of 5.0±0.1 was tested for stability under either −20° C. or 40° C. with 75% relative humidity (RH). […]

[2] = Example 4 stability of concentrated saline pH 5.0 solutions at −20° C. or 40° C./75% RH: Visual Appearance (method 25481); assay type: physicochemical
Protocol: as §1

[3] = Example 4 stability of concentrated solutions: pH (method 05627); assay type: physicochemical
Protocol: as §1

[4] = 15.3 mg/mL solution, 40° C. and 75% RH, 1 Month
[5] = 15.3 mg/mL solution, 40° C. and 75% RH, 2 Month
[6] = 15.3 mg/mL solution, 40° C. and 75% RH, 3 Month
[7] = 15.3 mg/mL solution, 40° C. and 75% RH, 6 Month
[8] = 15.3 mg/mL solution, −20° C., 0 Month
[9] = 15.3 mg/mL solution, −20° C., 1 Month
[10] = 15.3 mg/mL solution, −20° C., 2 Month
[11] = 15.3 mg/mL solution, −20° C., 3 Month
[12] = 15.3 mg/mL solution, −20° C., 6 Month
[13] = 36.7 mg/mL solution, 40° C. and 75% RH, 1 Month
[14] = 36.7 mg/mL solution, 40° C. and 75% RH, 2 Month
[15] = 36.7 mg/mL solution, 40° C. and 75% RH, 3 Month
[16] = 36.7 mg/mL solution, 40° C. and 75% RH, 6 Month
[17] = 36.7 mg/mL solution, −20° C., 0 Month
[18] = 36.7 mg/mL solution, −20° C., 1 Month
[19] = 36.7 mg/mL solution, −20° C., 2 Month
[20] = 36.7 mg/mL solution, −20° C., 3 Month
[21] = 36.7 mg/mL solution, −20° C., 6 Month
[22] = 72.4 mg/mL solution, 40° C. and 75% RH, 1 Month
[23] = 72.4 mg/mL solution, 40° C. and 75% RH, 2 Month
[24] = 72.4 mg/mL solution, 40° C. and 75% RH, 3 Month
[25] = 72.4 mg/mL solution, 40° C. and 75% RH, 6 Month
[26] = 72.4 mg/mL solution, −20° C., 0 Month
[27] = 72.4 mg/mL solution, −20° C., 1 Month
[28] = 72.4 mg/mL solution, −20° C., 2 Month
[29] = 72.4 mg/mL solution, −20° C., 3 Month
[30] = 72.4 mg/mL solution, −20° C., 6 Month
[31] = 81.4 mg/mL solution, 40° C. and 75% RH, 1 Month
[32] = 81.4 mg/mL solution, 40° C. and 75% RH, 2 Month
[33] = 81.4 mg/mL solution, 40° C. and 75% RH, 3 Month
[34] = 81.4 mg/mL solution, −20° C., 0 Month
[35] = 81.4 mg/mL solution, −20° C., 1 Month
[36] = 81.4 mg/mL solution, −20° C., 2 Month
[37] = 81.4 mg/mL solution, −20° C., 3 Month

## RRWVRRVRRVWRRVVRVVRRWVRR-NH2 [SEQ ID NO: 1]
[1]; [4]
  Osmolality: Average Reading: 82 mOsmol/kg
[1]; [5]
  Osmolality: Average Reading: 83 mOsmol/kg
[1]; [6]
  Osmolality: Average Reading: 80 mOsmol/kg
[1]; [7]
  Osmolality: 85 mOsmol/kg
[1]; [8]
  Osmolality: Average Reading: 82 mOsmol/kg
[1]; [9]
  Osmolality: Average Reading: 82 mOsmol/kg
[1]; [10]
  Osmolality: Average Reading: 82 mOsmol/kg
[1]; [11]
  Osmolality: Average Reading: 82 mOsmol/kg
[1]; [12]
  Osmolality: 84 mOsmol/kg
[1]; 15.3 mg/mL solution, −20° C., 9 Month
  Osmolality: 83 mOsmol/kg
[1]; [13]
  Osmolality Average Reading: Average Reading: 188 mOsmol/kg
[1]; [14]
  Osmolality Average Reading: Average Reading: 189 mOsmol/kg
[1]; [15]
  Osmolality Average Reading: Average Reading: 191 mOsmol/kg
[1]; [16]
  Osmolality: 193 mOsmol/kg
[1]; [17]
  Osmolality: Average Reading: 190 mOsmol/kg
[1]; [18]
  Osmolality: Average Reading: 188 mOsmol/kg
[1]; [19]
  Osmolality: Average Reading: 190 mOsmol/kg
[1]; [20]
  Osmolality: Average Reading: 193 mOsmol/kg
[1]; [21]
  Osmolality: 190 mOsmol/kg
[1]; 36.7 mg/mL solution, −20° C., 9 Month
  Osmolality: 190 mOsmol/kg
[1]; [22]
  Osmolality Average Reading: Average Reading: 374 mOsmol/kg
[1]; [23]
  Osmolality Average Reading: Average Reading: 379 mOsmol/kg
[1]; [24]
  Osmolality Average Reading: Average Reading: 371 mOsmol/kg
[1]; [25]
  Osmolality: 194 mOsmol/kg
[1]; [26]
  Osmolality Average Reading: Average Reading: 371 mOsmol/kg
[1]; [27]
  Osmolality Average Reading: Average Reading: 374 mOsmol/kg
[1]; [28]
  Osmolality Average Reading: Average Reading: 376 mOsmol/kg
[1]; [29]
  Osmolality Average Reading: Average Reading: 374 mOsmol/kg
[1]; [30]
  Osmolality: 195 mOsmol/kg
[1]; 72.4 mg/mL solution, −20° C., 9 Month
  Osmolality: 375 mOsmol/kg
[1]; [31]
  Osmolality: 489 mOsm/kg
[1]; [32]
  Osmolality: 491 mOsm/kg
[1]; [33]
  Osmolality: 492 mOsm/kg
[1]; [34]
  Osmolality: 485 mOsm/kg
[1]; [35]
  Osmolality: 489 mOsm/kg
[1]; [36]
  Osmolality: 488 mOsm/kg
[1]; [37]
  Osmolality: 486 mOsm/kg
[2]; [4]
  Visual Appearance: Clear, colorless liquid. Free of visible particulates.
[2]; [5]
  Visual Appearance: Clear, colorless liquid. Free of visible particulates.
[2]; [6]
  Visual Appearance: Clear, colorless liquid. Free of visible particulates.
[2]; [7]
  Visual Appearance: Clear, colorless liquid. Free of visible particulates,
[2]; [8]
  Visual Appearance: Clear, colorless liquid. Free of visible particulates.
[2]; [9]
  Visual Appearance: Clear, colorless liquid. Free of visible particulates.
[2]; [10]
  Visual Appearance: Clear, colorless liquid. Free of visible
[2]; [11]
  Visual Appearance: Clear, colorless liquid. Free of visible particulates.
[2]; [12]
  Visual Appearance: Clear, colorless liquid. Free of visible particulates,
[2]; [13]
  Visual Appearance: Clear, colorless liquid
[2]; [14]
  Visual Appearance: Clear, colorless liquid
[2]; [15]
  Visual Appearance: Clear, colorless liquid
[2]; [16]
  Visual Appearance: Clear, colorless liquid, free
[2]; [17]
  Visual Appearance: Clear, colorless liquid.
[2]; [18]
  Visual Appearance: Clear, colorless liquid.
[2]; [19]
  Visual Appearance: Clear, colorless liquid.
[2]; [20]
  Visual Appearance: Clear, colorless liquid.
[2]; [21]
  Visual Appearance: Clear, colorless liquid, free
[2]; [22]
  Visual Appearance: Clear, colorless liquid
[2]; [23]
  Visual Appearance: Clear, colorless liquid
[2]; [24]
  Visual Appearance: Clear, colorless liquid
[2]; [25]
  Visual Appearance: Clear, slightly yellow liquid, free
[2]; [26]
  Visual Appearance: Clear, colorless liquid
[2]; [27]
  Visual Appearance: Clear, colorless liquid
[2]; [28]
  Visual Appearance: Clear, colorless liquid
[2]; [29]
  Visual Appearance: Clear, colorless liquid
[2]; [30]
  Visual Appearance: Clear, colorless liquid, free
[2]; [31]
  Visual Appearance: Clear, yellow liquid
[2]; [33]
  Visual Appearance: stopper Solution: Clear, yellow
[2]; [35]
  Visual Appearance: Clear, colorless liquid
[2]; [36]
  Visual Appearance: a clear colorless liquid, visibly
[2]; [37]
  Visual Appearance: rubber stopper Solution: Clear, colorless liquid,
other
  solubility: > 100 mg/mL
[3]; [4]
  pH: Average Reading: 4.9
[3]; [5]
  pH: Average Reading: 5.0
[3]; [6]
  pH: Average Reading: 5.0
[3]; [7]
  pH: 5.0
[3]; [8]
  pH: Average Reading: 4.9
[3]; [9]
  pH: Average Reading: 5.0
[3]; [10]
  pH: Average Reading: 4.9
[3]; [11]
  pH: Average Reading: 5.0
[3]; [12]
  pH: 5.0
[3]; [13]
  pH Average Reading: Average Reading: 4.8
[3]; [14]
  pH Average Reading: Average Reading: 4.9
[3]; [15]
  pH Average Reading: Average Reading: 5.0
[3]; [16]
  pH: 4.8
[3]; [17]
  pH: Average Reading: 4.9
[3]; [18]
  pH: Average Reading: 4.8
[3]; [19]
  pH: Average Reading: 4.9
[3]; [20]
  pH: Average Reading: 5.0
[3]; [21]
  pH: 4.9
[3]; [22]
  pH Average Reading: Average Reading: 4.7
[3]; [23]
  pH Average Reading: Average Reading: 4.9
[3]; [24]
  pH Average Reading: Average Reading: 5.0
[3]; [25]
  pH: 4.8
[3]; [26]
  pH Average Reading: Average Reading: 4.9
[3]; [27]
  pH Average Reading: Average Reading: 4.7
[3]; [28]
  pH Average Reading: Average Reading: 4.8
[3]; [29]
  pH Average Reading: Average Reading: 5.0
[3]; [30]
  pH: 4.8
[3]; [31]
  pH: 4.9
[3]; [32]
  pH: 4.9
[3]; [33]
  pH: 4.9
[3]; [34]
  pH: 4.6
[3]; [35]
  pH: 4.8
[3]; [36]
  pH: 4.9
[3]; [37]
  pH: 4.6
